Consider six compounds from patent US12268700B2, “3-o-sulfo-galactosylceramide analogs as activators of type II NKT cells and uses thereof” (The United States of America, as represented by the …, priority 2018, dated 2025).

The test system of one test is IFN-γ. The test can be described thus: Serum cytokine production after i.p. lipid injection (multiplex analysis). The format is in vivo, mice. The note with it: bled 3, 6, 12 and 24 h, FIG. 7. As to the method:
Mice were injected i.p. with lipids and bled 3, 6, 12 and 24 h after injection. The cytokine production in the serum was determined by multiplex analysis.

The test system of test [1] is DN32.D3 type I NKT hybridoma. The test can be described thus: In vitro stimulation of type I NKT hybridoma with lipid-loaded plate-coated CD1d monomers, IL-2 ELISA. The format is cell-based, murine. The note with it: 24 h; for DN32 activation (IL-2 production): 0.5 μg plate-coated CD1d monomers loaded with 4 μM sulfatide or analogues, 10 nM α-GalCer or β-GalCer; for level of activation (amount of IL-2 produced) of DN32.D3, compared with reference lipids: CD1d monomers loaded with 4 μM lipid. As to the method:
The hybridoma cell line DN32.D3 created by Brutkiewicz et al. (R. R. Brutkiewicz et al., J. Experimental Medicine, 183: 1913-1919 (1995)) that express the TCR semi-invariant α-chain Vα14Jα18 associated with the Vβ8.2Jβ2.4 chain was used.
(§1) CD monomers were loaded as described above. Flat bottom 96 well plates were coated overnight with 0.5 μg of CD1d monomers loaded with 4 μM of sulfatide or sulfatide-analogues, 10 nM of α-GalCer or with 10 ng/ml of anti-CD3 antibody (Biolegend, San Diego, CA) dissolved in PBS. Plates were then washed in PBS and complete medium. 50×10^3 hybridoma cells in 200 μl of complete medium were plated in presence or not of anti-CD1d blocking antibody 20H2.
(§2) Cells were cultured for 24 h at 37° C., 5% CO2. The production of IL-2 was measured by ELISA from the culture supernatant according to the recommendations of the manufacturer.
(§3) Therefore, well-described type I and type II NKT hybridoma cell lines were used in this experiment. The type I NKT hybridoma DN32.D3 expresses the murine semi-invariant TCR Vα14Jα18 associated with the Vβ8.2/Jβ2.4 chain (Brutkiewicz et al.) and is specific for α-GalCer.
A general note: In an ELISA, binding on a coated surface is turned into a signal by an enzyme label.

In a further test the test system is lung mononuclear cells. The test can be described thus: Ex vivo stimulation of lung mononuclear cells with lipid-pulsed BMDC, IL-13 ELISA. The class given is cell-based, BALB/c mice. The settings on record: BMDC pulsed with 33 μM lipid, 4 days, FIG. 3; for production of IL-13: ELISA of culture supernatant. As to the method: For the preparation of lung mononuclear cells, lungs were perfused with warm Dulbecco's Phosphate-Buffered Saline (DPBS) (Life Technologies, Frederick, MD) from the heart right ventricle. Single cell suspension was prepared with a Lung Dissociation Kit (Miltenyi Biotec, San Diego, CA) according to the manufacturer's protocol. Lung mononuclear cells (LMNC) were then purified from the cell suspension by a 40%/80% gradient of Percoll (Sigma-Aldrich, St-Louis, MO).
BMDC were prepared by collecting bone marrow cells from femurs and tibias of BALB/c mice in complete medium. Cells were suspended at the concentration of 0.2×10^6/ml in complete medium supplemented with 20 ng/ml of GM-CSF (Peprotech, Rocky Hill, NJ) and 2×10^6 cells were plated per Petri dish (Corning, Tewksbury, MA). Fresh medium supplemented with 20 ng/ml GM-CSF was added at day 3 and refreshed at day 6. At day 8 the cells were harvested, washed in complete medium and suspended at 0.4×10^6/ml in complete medium supplemented with 10 ng/ml of GM-CSF and 1 μg/ml of LPS (Sigma-Aldrich). 4×10^6 cells were plated per Petri dish for 24 h.
200 μg of sulfatide of sulfatide-analogues dry powder was dissolved in 100 μl of DPBS containing 0.5% Tween20 (PBS-Tween) (Avantor performance materials). BMDCs were washed and put at the concentration of 1×10^7/ml and incubated 3 h at 37° C. in presence of 30 μg/ml of sulfatide or sulfatide-analogues or the same volume of PBS-Tween as vehicle control. After washing, 100×10^3 pulsed BMDCs were cultured with 0.5×10^6 lung mononuclear cells in complete medium in flat-bottom 96 well plates for 4 days at 37° C., 5% CO2. When indicated, 10 μg/ml of anti-CD1d antibody (20H2, Harlan, Indianapolis, IN) was added. Supernatants were harvested, and IL-13 production was determined by ELISA according to the recommendations of the manufacturer (eBioscience).
Lung mononuclear cells from WT BALB/c mice were stimulated for 4 days in presence of BMDC (bone marrow derived dendritic cells) pulsed with 33 μM of sulfatide, vehicle control, or 33 μM of the sulfatide analogues pC24:1, pC24:2, or C24:2 in presence or absence of the anti-CD1d blocking antibody 20H2 to confirm the dependency of the IL-13 production on CD1d. The production of IL-13 was measured by ELISA in the culture supernatant. The results are shown in FIG. 3 (n=4, duplicates from 2 independent experiments.

Test [2] deals with XV19 type II NKT hybridoma. The test can be described thus: In vitro stimulation of type II NKT hybridoma with lipid-loaded plate-coated CD1d monomers, IL-2 ELISA. The class given is cell-based, mouse. The note with it: 24 h, 0.5 μg plate-coated CD1d monomers loaded with 4 μM sulfatide or analogues, 10 nM α-GalCer or β-GalCer. As to the method: The hybridoma XV19 was created by Cardell, S. et al. (J. Experimental Medicine, 182: 993-1004 (1995)) and was provided by Susanna Cardell.
as §1, §2, §3

Test [3] deals with CT26 (colon cancer) cells. Kind of test: CT26 lung metastasis model, lung nodule count. The class given is in vivo, BALB/c mice. The settings on record: for number of lung nodules: same day 33 nmol sulfatide or analogues or 500 pmol α-GalCer i.p., counted 8 to 12 days, compared to vehicle, FIG. 5. As to the method: 200 μg of sulfatide of sulfatide-analogues dry powder were resuspended with 40 μl of PBS-Tween20-0.05% and warm at 37° C. for 10 min. Then, 697 μl of DPBS were added to obtain a concentration of 300 μg/ml of lipid. Mice received an i.p injection of 100 μl of sulfatide or analogue mix that is equivalent to […] of lipid. A solution of 500 μM of α-GalCer in DPBS-tween20-0.05% was thawed and sonicated at 60° C. for 2 min and a solution at 10 μM was prepared in DPBS. Mice were injected i.p. with […] (100 μl) of α-GalCer solution.
The CT26 cell were cultured in tumor medium: RPMI 1640 (Life technologies) supplemented with 10% heat inactivated fetal calf serum, 2 mM L-Glutamine, penicillin, streptomycin, 10 mM HEPES, 1/100 vol non-essential amino acids, and 1 mM sodium pyruvate 1/1000 of β-mercaptoethanol. Cells were harvested at 80-85% confluence, detached from plastic with trypsin treatment and resuspended at 5×10^6 cell/ml in DPBS. Mice were injected i.v in the tail vein with 0.5×10^6 CT26 cells (100 μl). The same day, mice were injected i.p. with […] of sulfatide or sulfatide analogues, or 10 nmol of α-GalCer.
WT BALB/c mice were injected intravenously (i.v.) with 0.5×10^6 CT26 (colon cancer) and treated the same day with 33 nmol of sulfatide or sulfatide-analogues or 500 pmol of α-GalCer injected i.p. Lung nodules were counted 8 to 12 days after tumor inoculation according to the results in the monitoring mice. n=10 from 2 independent experiments. The results are shown graphically in FIG. 5.
WT BALB/c mice were inoculated i.v. with 5×10^5 CT26 cells and treated i.p. with 30, 5 or 0.5 nmol of sulfatide or C24:2. The number of nodules in the lung was determined 8 to 12 days after injection.
WT BALB/c mice were injected i.v. with 0.5×10^6 CT26 (colon cancer cells) and treated the same day with […] of sulfatide or C24:2 or 500 pmol of α-GalCer injected i.p. Mice were injected i.p with 200 μg/ml of anti-IFNγ or rat IgG isotype control on day 0, day 1, day 2, day 3, and day 5. Lung nodules were counted 8 to 12 days after tumor inoculation according to the results in the monitoring mice. The results are shown in FIG. 8A (Rat IgG) and FIG. 8B (anti-IFN-γ).

Test [4] deals with CT26 (colon cancer) cells. The note with it: murine model of lung metastasis; Ambrosino et al. 2007; cited from earlier work.

“Also recorded” adds a separate entry of the source.

With `CCCCC/C=C\C/C=C\CCCCCCCCCCCCCC(=O)N[C@@H](CO[C@@H]1O[C@H](CO)[C@H](O)[C@H](OS(=O)(=O)O)[C@H]1O)[C@H](O)/C=C/CCCCCCCCCCCCC` [C24:2, (2S,3R,4E)-1-(3-O-Sodiumsulfonyl-β-D-galactopyranosyloxy)-2-(N-15Z,18Z-tetracosadienoylamino)octadec-4-en-3-ol], in the test on IFN-γ, the “production of IFN-γ in the serum” value is given as “induced a high production of IFN-γ”. In test [1], the “DN32 activation (IL-2 production)” value is reported as “not DN32.D3; also recorded: not type I”. Further, in the test on lung mononuclear cells, the “production of IL-13” value is “induced a high production of IL-13” and the “production of IL-13 in presence of anti-CD1d blocking antibody 20H2” value is on record as “abrogated”. In addition, the “XV19 activation (IL-2 production)” value in test [2] is “activated only XV19; also recorded: activated only type II NKT cells”. The “protection from tumor nodules with anti-IFN-γ versus rat IgG isotype control” value in test [3] (0.5×10^6 CT26 i.v., 30 μmol i.p., anti-IFNγ or rat IgG i.p. on days 0, 1, 2, 3, 5, FIGS. 8A-8B) was “dependent on IFN-γ”. Moreover, the “number of lung nodules” value in test [3] (0.5×10^6 CT26 i.v.) is reported as “significantly reduced the number of lung nodules; also recorded: induced a significant reduction of the number of lung nodules”. Also, the “reduction of tumor nodules, dose study” value in test [3] (5×10^5 CT26 i.v., 30, 5 or 0.5 nmol i.p., result stated for 5 nmol, FIG. 6) is “efficient for the reduction of tumor nodules”.
On to `CCCCCCCC/C=C\CCCCCCCCCCCCCC(=O)N[C@@H](CO[C@H]1O[C@H](CO)[C@H](O)[C@H](OS(=O)(=O)O)[C@H]1O)[C@H](O)/C=C/CCCCCCCCCCCCC` [Sulfatide C24:1, 3-o-sulfo-α-galactosylceramide, d18:1/C24:1, reference compound], for which the “DN32 activation (IL-2 production)” value in test [1] was “not”. In addition, the “XV19 activation (IL-2 production)” value in test [2] is “activated”. The “number of lung nodules” value in test [3] (0.5×10^6 CT26 i.v.) is recorded as “increased the number of lung nodules”. For the same compound, in test [4], the “development of lung nodules (previously demonstrated)” value is “increased the development of nodules”.
Take `CCCCC/C=C\C/C=C\CCCCCCCCCCCCCC(=O)N[C@@H](CO[C@@H]1O[C@H](CO)[C@H](O)[C@H](OS(=O)(=O)O)[C@H]1O)[C@H](O)[C@H](O)CCCCCCCCCCCCCC` [pC24:2, (2S,3S,4R)-1-(3-O-Sodiumsulfonyl-β-D-galactopyranosyloxy)-2-(N-15Z,18Z-tetracosadienoylamino)octadecan-3,4-diol]: in test [1], the “DN32 activation (IL-2 production)” value is “also activated DN32.D3”; the “level of activation (amount of IL-2 produced) of DN32.D3, compared with reference lipids” value is “lower than that induced by α-GalCer and in the same range as the one induced by β-GalCer”. Moreover, in the test on lung mononuclear cells, the “production of IL-13” value is given as “induced a high production of IL-13” and the “production of IL-13 in presence of anti-CD1d blocking antibody 20H2” value is reported as “abrogated”. Further, the “XV19 activation (IL-2 production)” value in test [2] is “activated XV19”. In test [3] (0.5×10^6 CT26 i.v.), the “number of lung nodules” value is reported as “did not have any effect”.
Regarding `CCCCCCCCCCCCCCCCCCCCCCCCCC(=O)N[C@@H](CO[C@H]1O[C@H](CO)[C@H](O)[C@H](O)[C@H]1O)[C@H](O)[C@H](O)CCCCCCCCCCCCCC` [α-GalCer, α-galactosylceramide, reference compound], the “DN32 activation (IL-2 production)” value in test [1] is reported as “activated”. The “XV19 activation (IL-2 production)” value in test [2] was “not”. In addition, the “number of lung nodules” value in test [3] (0.5×10^6 CT26 i.v.) was “inhibited their development”. For the same compound, the “development of lung nodules (previously demonstrated)” value in test [4] is reported as “abrogated it”.
On to “(2S,3S,4R)-1-(3-O-Sodiumsulfonyl-β-D-galactopyranosyloxy)-2-(N-15Z-tetracosenoylamino)octadecane-3,4-diol [pC24:1]”, for which, in test [1], the “DN32 activation (IL-2 production)” value is “also activated DN32.D3”; the “level of activation (amount of IL-2 produced) of DN32.D3, compared with reference lipids” value was “lower than that induced by α-GalCer and in the same range as the one induced by β-GalCer”. In the test with lung mononuclear cells, the “production of IL-13” value is recorded as “induced a high production of IL-13” and the “production of IL-13 in presence of anti-CD1d blocking antibody 20H2” value is given as “abrogated”. Further, the “XV19 activation (IL-2 production)” value in test [2] is “activated XV19”. Besides, in test [3] (0.5×10^6 CT26 i.v.), the “number of lung nodules” value is “did not have any effect”.
As for “β-galactosylceramide [β-GalCer, reference compound]”, in test [1], the “DN32 activation (IL-2 production)” value is on record as “activated”. Moreover, in test [2], the “XV19 activation (IL-2 production)” value is given as “not”.
